Experimental data published in patent US20120010177A1, “MicroRNA Modulators and Method for Identifying And Using The Same” (The Wistar Institute / North Carolina State University, priority 2008, published 2012).
Like-named read-outs stand apart in the source and are kept apart here.

Test system: miR-21
Experiment: High throughput primary miR-21 FLuc reporter assay (concentration-response)
Assay type: cell-based, human
Procedure: Primary miR-21 Assay. The primary miR-21 FLuc reporter assay is carried out with HeLa cells expressing the Luc-miR-21 reporter using a 48-hour incubation time. Active compounds that increase the luciferase response are identified based upon inhibition of miR-21.
SAR. The concentration-response data for the entire high throughput screen is plotted and modeled by a four parameter logistic fit and SAR analysis is performed according to conventional approaches (Iglese, et al. (2006) Proc. Natl. Acad. Sci. USA […]:11473-8). In brief, Class 1.1 and 1.2 are full curves containing upper and lower asymptotes with efficacy ≧80% and <80%, respectively. Class 2.1 and 2.2 are incomplete curves having only one asymptote with efficacy ≧80% and <80%, respectively. Class 3 curves show activity at only the highest concentration or are poorly fit. […] For SAR analysis, compounds associated with Class 1 and 2.1 curves are clustered using LEADSCOPE® fingerprints. […] Compounds sharing a common scaffold form a series. Candidate series and singletons are chosen for follow up studies. For each lead or series, an appropriate library design method (e.g., point substitution library or matrix library) is selected. Typically, precursors are synthesized and a library of 15-25 compounds is produced for analysis in the above-described assays.

[1] = Homo sapiens, HeLa, 48 h, HeLa Luc-miR-21 reporter, 48-hour incubation, read-out: AC50
[2] = Homo sapiens, Table 12 singletons, read-out: AC50

Structure (SMILES)	AC50 [1]	also measured
COc1nc(Nc2cccc(C(F)(F)F)c2)nc(OC)n1 [Compound 63]	14.7 µM	
CCOC(=O)c1s/c(=N/C(=O)c2c(F)cccc2F)n(C)c1C [Compound 293]		AC50 [2]: 13.1 µM
O=C(c1cccc([N+](=O)[O-])c1)n1nc(-c2ccccc2)nc1NCc1ccccc1 [Compound 40]	16.5 µM	
O=C(N/N=C/c1ccc(OC(=O)c2cccs2)cc1)c1cccc(F)c1 [Compound 235]	18.5 µM	
C/C(CC(=O)NC(C)(C)C)=N\NC(=O)c1ccccc1N [Compound 200]	5.21 µM	
Cc1cccc(-n2nnc(-c3nc(-c4cccs4)no3)c2N)c1C [Compound 9]	0.09 µM	
Cn1nc2c3ccccc3n(Cc3ccccc3)c2nc1=S [Compound 311]		AC50 [2]: 14.7 µM
C#CN/C(=N\CC=C)SCCc1ccccc1 [Compound 326]		AC50 [2]: 16.5 µM
CC(C)c1nnc(NC(=O)COc2ccccc2[N+](=O)[O-])s1 [Compound 179]	9.27 µM	
COc1ccc(C2=NN(C(C)=O)C(c3cccs3)C2)cc1OC (stereo not drawn) [Compound 212]	8.26 µM	
CNc1nc(C)c(C(=O)OCc2ccccc2)s1 [Compound 316]		AC50 [2]: 16.5 µM
O=C(CSc1nnc(-c2ccc(C(F)(F)F)cn2)o1)Nc1cccc(Cl)c1 [Compound 132]	4.14 µM	
CCC(=O)Nc1ccc(NC(=O)C23CC4CC(CC(C4)C2)C3)cn1 [Compound 98]	16.5 µM	
Nc1nc(Nc2ccccc2)nc(C(F)(F)F)n1 [Compound 67]	16.5 µM	
CCCNC(=O)COCc1cc(-c2ccc(F)cc2)on1 [Compound 170]	16.5 µM	
O=C(COc1ccccc1[N+](=O)[O-])N/N=C/c1cccc(OC(=O)c2ccc3c(c2)OCO3)c1 [Compound 173]	18.5 µM	
C/C(=N\NC(=O)c1ccco1)c1ccc(C(=O)O)s1 [Compound 196]	4.65 µM	
CCC(C)NC(=O)c1ccc2c(c1)S(=O)(=O)c1ccccc1C2=O (stereo not drawn) [Compound 331]		AC50 [2]: 16.5 µM
N#CC1Cc2cc3c(cc2N=C1SCC(=O)N1CCOCC1)OCO3 (stereo not drawn) [Compound 121]	0.66 µM	
O=C(CSc1nnc(-c2cccnc2)o1)Nc1cccc(Cl)c1 [Compound 149]	13.1 µM	
COCCNC(=O)C(c1cccnc1)N(Cc1ccccc1)C(=O)Cn1nnc2ccccc21 (stereo not drawn) [Compound 58]	13.1 µM	
COc1ccc(-c2nn3c(-c4ccccc4)nnc3s2)cc1OC [Compound 310]		AC50 [2]: 14.7 µM
Nc1ccc2c(c1)Cc1cc([N+](=O)[O-])ccc1-2 [Compound 299]		AC50 [2]: 14.7 µM

Structure (SMILES)	AC50 [1]	also measured
COc1ccc(-c2nc3c(Br)c(N)c(Br)cc3o2)cc1 [Compound 256]		AC50 [2]: 2.07 µM
Nc1c(Cl)cc2c(c1Oc1ccccc1)C(=O)c1ccccc1C2=O [Compound 266]		AC50 [2]: 4.14 µM
COP(=O)(OC)C(Nc1ccc(C)cc1)c1ccc([N+](=O)[O-])cc1 (stereo not drawn) [Compound 286]		AC50 (Homo sapiens): 10.4 µM
Cc1ccc(OCCn2cnc3c(N)ncnc32)cc1 [Compound 240]	16.5 µM	
Cc1ccc(-c2nc3ncccn3c2Nc2ccc3c(c2)OCCO3)o1 [Compound 242]	16.5 µM	
Cc1cccc(-c2nsc(SCC(=O)Nc3ccc4c(c3)OCO4)n2)c1 [Compound 148]	13.1 µM	
CC(C)(C)C1CCc2nc(NC(=O)Cc3cn4ccsc4n3)sc2C1 (stereo not drawn) [Compound 95]	8.26 µM	
COC(=O)/C(=C/c1cccc([N+](=O)[O-])c1)NC(=O)c1ccc(OC)cc1 [Compound 89]		AC50 (HeLa Luc-miR-21 reporter, 48-hour incubation, read-out: AC50): 5.21 µM
CCOc1ccc(NC(=O)CSc2ccc3ccccc3n2)cc1 [Compound 163]	18.5 µM	
Cc1ccc(Nc2c(-c3ccc(C)o3)nc3cnccn23)cc1 [Compound 244]	16.5 µM	
COc1nc(NCCO)nc(Nc2ccccc2F)n1 [Compound 59]	4.65 µM	
CCc1ccc(N2C(=O)Cc3c2nc(N)c(C#N)c3N)cc1 [Compound 318]		AC50 [2]: 16.5 µM
CCC(C)NC(=O)CSc1ccc(Cl)cc1 (stereo not drawn) [Compound 162]	18.5 µM	
CCCNc1nc(C)nc2c1cnn2CCc1ccccc1 [Compound 248]	14.7 µM	
C/C(Cn1cnc([N+](=O)[O-])n1)=N\NC(=O)c1ccccc1 [Compound 236]	20.8 µM	
Nc1ncnc(Nc2ccc(F)c(Cl)c2)n1 [Compound 65]	16.5 µM	
COc1ccc(C)cc1-n1nnc(-c2nc(-c3ccccc3Cl)no2)c1N [Compound 16]	4.65 µM	
CCN(CC)C(=O)CS/C(=N/C#N)Nc1ccccc1F [Compound 155]	14.7 µM	
c1csc(-c2nn3c(C4COc5ccccc5O4)nnc3s2)c1 (stereo not drawn) [Compound 314]		AC50 [2]: 16.5 µM
COc1ccc(OCC(=O)Nc2ccc(-c3nc4cc(C)c(C)cc4o3)cc2)cc1 [Compound 165]	0.13 µM	
CC(=O)Nc1ccc(NC(=O)COc2ccc(Cl)cc2Cl)cc1 [Compound 175]	14.7 µM	
COc1cc(-c2nc3cnccn3c2Nc2ccc(C(C)C)cc2)ccc1O [Compound 241]	3.29 µM	
Cc1cc(C)c(C#N)c(SCC(=O)Nc2ccc3c(c2)OCO3)n1 [Compound 128]	3.29 µM	

Structure (SMILES)	AC50 [1]	also measured
CCn1nnc2cc(C(=O)Nc3ccc(OC)cc3)ccc21 [Compound 93]	11.7 µM	
Cn1nnc2cc(C(=O)Nc3ccccc3F)ccc21 [Compound 108]	14.7 µM	
Cc1ccc(-c2noc(-c3nnn(CC(=O)Nc4cccc(C(F)(F)F)c4)c3N)n2)cc1 [Compound 27]	0.74 µM	
C/C(=N\NC(=O)c1ccco1)c1ccc(NC(=O)C(F)(F)F)cc1 [Compound 229]	16.5 µM	
CCC(=O)Oc1ccc(NC(=O)CSCc2ccccc2)cc1 [Compound 288]		AC50 [2]: 11.7 µM
COc1ccc(/C=C/C(=O)NC2CCCCCC2)cc1S(=O)(=O)N1CCOCC1 [Compound 287]		AC50 [2]: 10.4 µM
Cc1cc(C)c2c(N)c(C(=O)Nc3ccccc3F)sc2n1 [Compound 81]	1.47 µM	
Cc1c(C(=O)N(C)C(C)c2ccccn2)oc2c(F)cccc12 (stereo not drawn) [Compound 75]	13.1 µM	
O=C(CCc1ccccc1)Nc1cccnc1Cl [Compound 96]	13.1 µM	
Nc1ccccc1C(=O)N/N=C1\CCC\C1=C(\O)C(F)(F)F [Compound 198]	5.21 µM	
CC(=O)c1cnc2nc(SCc3ccccc3)nn2c1C [Compound 43]	5.21 µM	
O=C(Nc1ccc2nn(-c3ccccc3)nc2c1)c1ccc(-c2cccc(Cl)c2)o1 [Compound 109]	18.5 µM	
Nc1c(-c2nc(-c3ccccc3Cl)no2)nnn1-c1ccccc1F [Compound 12]	0.83 µM	
O=C(CCc1ccccc1)n1nc(-c2ccco2)nc1SCc1ccccc1 [Compound 53]	18.5 µM	
COc1ccc(NC(=O)C/C(C)=N/NC(=O)c2cccs2)c([N+](=O)[O-])c1 [Compound 190]	1.85 µM	
Cn1nc(NC(=O)C(F)(F)F)c2ncc(-c3ccc(Cl)cc3)nc21 [Compound 292]		AC50 (Table 12 singletons, read-out: AC50): 13.1 µM
CC(C)(C)c1ccc(CN2C(=O)c3ccccc3S2(=O)=O)cc1 [Compound 308]		AC50 [2]: 14.7 µM
Cc1ccc(-n2nnc(-c3nc(-c4cccs4)no3)c2N)cc1C [Compound 14]	1.65 µM	
COc1ccc(NC(=O)CSc2nc(SC)ns2)c(OC)c1 [Compound 125]	2.07 µM	
CCCCC12CN3CCN(CC(C3)/C1=N/NC(=O)c1ccccc1N)C2 [Compound 214]	9.27 µM	
CCCNc1ncnc2c1cnn2-c1ccc(OC)cc1 [Compound 246]	0.29 µM	
COc1ccc(NC(=O)c2ccccc2NC(=O)c2ccccc2C(=O)O)c(OC)c1 [Compound 104]	18.5 µM	
Cc1ccccc1Nc1nc(N)nc(CCC(=O)c2ccc(O)cc2)n1 [Compound 69]	18.5 µM	
